Results reported in the supplement of paper PMC10627819.

What was measured:
[1] = test system: B. subtilis 168; experiment: fitness (endpoint OD595 vs no drug) (fraction); higher = more growth
In short: (§1)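 Fitness expresses the optical density reached at the stationary-phase transition as a fraction of the robust mean of no-drug control wells. It is capped at 1. Measurements were OD595 every 30 min for 14 h at 37 °C after inoculation of 384-well plates at OD595 0.01 (30 µl, or 55 µl for S. pneumoniae), minus the first reading.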

[2] = test system: S. aureus DSM 20231; experiment: as above
In short: as §1

[3] = test system: S. pneumoniae D39V; experiment: as above
In short: as §1

[4] = test system: B. subtilis 168; experiment: Bliss interaction score (quartile over a dose matrix) (fitness difference); higher = more antagonism (negative = synergy)
In short: (§2)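 Growth was read as OD595 when cultures entered stationary phase, and each value was divided by the plate's robust no-drug mean and capped at 1. This normalised ratio is the fitness value, and fitness for each single drug came from the combination data. The Bliss score subtracts the expected fitness, taken as the product, from the observed fitness and is given as quartiles across technical, biological and donor/recipient replicates.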

[5] = test system: S. aureus DSM 20231; experiment: as above
In short: as §2

[6] = test system: S. aureus Newman; experiment: as above
In short: as §2

[7] = test system: S. pneumoniae D39V; experiment: as above
In short: as §2
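For Bliss interaction score (quartile over a dose matrix) in this document: first quartile when negative (synergy) and third quartile when positive (antagonism).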
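For fitness (endpoint OD595 vs no drug) in this document: OD595 on entry to stationary phase over no-drug wells; at most 1.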

CC(=O)NC[C@H]1CN(c2ccc(N3CCOCC3)c(F)c2)C(=O)O1 [Linezolid] + CC1=C\[C@@H](O)CC(=O)Cc2nc(co2)C(=O)N2CCC=C2C(=O)O[C@H](C(C)C)[C@H](C)/C=C/C(=O)NC\C=C\1 [Virginiamycin M1]
one replicate
Details	fitness
[1], first compound 0.0625 µg/mL, partner 0.0625 µg/mL	0.851
[1], first compound 0.0625 µg/mL, partner 0.125 µg/mL	0.915
[1], first compound 0.0625 µg/mL, partner 0.25 µg/mL	0.879
[2], first compound 0.125 µg/mL, partner 0.5 µg/mL	0.873
[2], first compound 0.125 µg/mL, partner 1 µg/mL	0.759
[2], first compound 0.25 µg/mL, partner 0.5 µg/mL	0.675
[2], first compound 0.25 µg/mL, partner 1 µg/mL	0.63
[2], first compound 0.5 µg/mL, partner 0.5 µg/mL	0.262
[2], first compound 0.5 µg/mL, partner 1 µg/mL	0.296
[2], first compound 1 µg/mL, partner 0.0625 µg/mL	0.0385
[2], first compound 1 µg/mL, partner 0.125 µg/mL	0.0443
[2], first compound 1 µg/mL, partner 0.25 µg/mL	0.0419
[3], first compound 0.2 µg/mL, partner 0.15 µg/mL	0.829
[3], first compound 0.2 µg/mL, partner 0.3 µg/mL	0.825
[3], first compound 0.2 µg/mL, partner 0.5 µg/mL	0.861
[3], first compound 0.2 µg/mL, partner 1 µg/mL	0.81
[3], first compound 0.4 µg/mL, partner 0.15 µg/mL	0.738
[3], first compound 0.4 µg/mL, partner 0.3 µg/mL	0.721
[3], first compound 0.4 µg/mL, partner 0.5 µg/mL	0.785
[3], first compound 0.4 µg/mL, partner 1 µg/mL	0.67
[3], first compound 0.8 µg/mL, partner 0.15 µg/mL	0.546
[3], first compound 0.8 µg/mL, partner 0.3 µg/mL	0.577
[3], first compound 0.8 µg/mL, partner 0.5 µg/mL	0.562
[3], first compound 0.8 µg/mL, partner 1 µg/mL	0.376

Details	fitness
[1], first compound 0.125 µg/mL, partner 0.0625 µg/mL	0.57
[1], first compound 0.125 µg/mL, partner 0.125 µg/mL	0.572
[1], first compound 0.125 µg/mL, partner 0.25 µg/mL	0.578
[1], first compound 0.25 µg/mL, partner 0.0625 µg/mL	0.0596
[1], first compound 0.25 µg/mL, partner 0.125 µg/mL	0.0652
[1], first compound 0.25 µg/mL, partner 0.25 µg/mL	0.0843
[1], first compound 0.5 µg/mL, partner 0.0625 µg/mL	0.0436
[1], first compound 0.5 µg/mL, partner 0.125 µg/mL	0.0429
[1], first compound 0.5 µg/mL, partner 0.25 µg/mL	0.0502
[2], first compound 0.125 µg/mL, partner 0.0625 µg/mL	0.884
[2], first compound 0.125 µg/mL, partner 0.125 µg/mL	0.951
[2], first compound 0.125 µg/mL, partner 0.25 µg/mL	0.826
[2], first compound 0.25 µg/mL, partner 0.0625 µg/mL	0.589
[2], first compound 0.25 µg/mL, partner 0.125 µg/mL	0.614
[2], first compound 0.25 µg/mL, partner 0.25 µg/mL	0.638
[2], first compound 0.5 µg/mL, partner 0.0625 µg/mL	0.186
[2], first compound 0.5 µg/mL, partner 0.125 µg/mL	0.156
[2], first compound 0.5 µg/mL, partner 0.25 µg/mL	0.196
[3], first compound 0.105 µg/mL, partner 0.5 µg/mL	0.849
[3], first compound 0.105 µg/mL, partner 1 µg/mL	0.881
[3], first compound 0.105 µg/mL, partner 2 µg/mL	0.856
[3], first compound 0.2 µg/mL, partner 2 µg/mL	0.775
[3], first compound 0.21 µg/mL, partner 0.5 µg/mL	0.763
[3], first compound 0.21 µg/mL, partner 1 µg/mL	0.756
[3], first compound 0.21 µg/mL, partner 2 µg/mL	0.769
[3], first compound 0.4 µg/mL, partner 2 µg/mL	0.677
[3], first compound 0.42 µg/mL, partner 0.5 µg/mL	0.496
[3], first compound 0.42 µg/mL, partner 1 µg/mL	0.486
[3], first compound 0.42 µg/mL, partner 2 µg/mL	0.39
[3], first compound 0.8 µg/mL, partner 2 µg/mL	0.458

Details	Bliss interaction score
[4]	0.0733
[5]	0.0505
[6]	0.0286
[7]	-0.0638

CC(=O)NC[C@H]1CN(c2ccc(N3CCOCC3)c(F)c2)C(=O)O1 [Linezolid] + CCCCCCCCCC(=O)N[C@@H]1[C@H]([C@@H]([C@H](O[C@H]1OC2=C3C=C4C=C2OC5=C(C=C(C=C5)[C@H]([C@H]6C(=O)N[C@@H](C7=C(C(=CC(=C7)O)OC8[C@H]([C@H]([C@@H]([C@H](O8)CO)O)O)O)C9=C(C=CC(=C9)[C@H](C(=O)N6)NC(=O)[C@@H]4NC(=O)[C@@H]1C2=CC(=CC(=C2)OC2=C(C=CC(=C2)[C@H](C(=O)N[C@H](CC2=CC(=C(O3)C=C2)Cl)C(=O)N1)N)O)O)O)C(=O)O)O[C@H]1[C@@H]([C@H]([C@@H]([C@H](O1)CO)O)O)NC(=O)C)Cl)CO)O)O [Teicoplanin]
fitness, [2], main component drawn
Details	first compound 0.125 µg/mL	first compound 0.25 µg/mL	first compound 0.5 µg/mL
partner 0.1562 µg/mL	0.852	0.649	0.158
partner 0.3125 µg/mL	0.989	–	–
partner 0.625 µg/mL	≥ 1	–	–

[2], first compound 1 µg/mL, one replicate, main component drawn
Details	fitness
partner 0.1562 µg/mL	0.0359
partner 0.3125 µg/mL	0.0319
partner 0.625 µg/mL	0.0292

main component drawn
Details	Bliss interaction score
[4]	-0.0585
[5]	0.109
[6]	0.116
[7]	-0.0593

CC(=O)NC[C@H]1CN(c2ccc(N3CCOCC3)c(F)c2)C(=O)O1 [Linezolid] + CCN(CC)CCOC(=O)c1ccc(N)cc1 [Procaine]
fitness, one replicate
Details	partner 85.5 µg/mL	partner 171 µg/mL	partner 342 µg/mL
[1], first compound 0.0625 µg/mL	0.828	0.846	0.858
[2], first compound 1 µg/mL	0.0561	0.0334	0.05
[3], first compound 0.2 µg/mL	0.792	0.839	0.778
[3], first compound 0.4 µg/mL	0.609	0.669	0.621
[3], first compound 0.8 µg/mL	0.245	0.335	0.271

fitness
Details	first compound 0.105 µg/mL	first compound 0.125 µg/mL	first compound 0.21 µg/mL	first compound 0.25 µg/mL	first compound 0.42 µg/mL	first compound 0.5 µg/mL
[1], partner 85.5 µg/mL	–	0.587	–	0.101	–	0.022
[1], partner 171 µg/mL	–	0.613	–	0.0992	–	0.0423
[1], partner 342 µg/mL	–	0.569	–	0.0813	–	0.0154
[2], partner 85.5 µg/mL	–	0.839	–	0.574	–	0.15
[2], partner 171 µg/mL	–	0.832	–	0.643	–	0.193
[2], partner 342 µg/mL	–	0.768	–	0.582	–	0.143
[3], partner 85.5 µg/mL	0.824	–	0.728	–	0.579	–
[3], partner 171 µg/mL	0.816	–	0.719	–	0.569	–
[3], partner 342 µg/mL	0.801	–	0.699	–	0.535	–

Details	Bliss interaction score
[4]	0.0668
[5]	-0.0676
[6]	0.111
[7]	0.0684

CC(=O)NC[C@H]1CN(c2ccc(N3CCOCC3)c(F)c2)C(=O)O1 [Linezolid] + CN1C2=CC=CC=C2N=C3C1=CC=CC3=O [Pyocyanin]
one replicate
Details	fitness
[1], first compound 0.0625 µg/mL, partner 1.25 µg/mL	0.804
[1], first compound 0.0625 µg/mL, partner 2.5 µg/mL	0.749
[1], first compound 0.0625 µg/mL, partner 5 µg/mL	0.594
[2], first compound 1 µg/mL, partner 1.25 µg/mL	0.0458
[2], first compound 1 µg/mL, partner 2.5 µg/mL	0.0282
[2], first compound 1 µg/mL, partner 5 µg/mL	0.0258
[3], first compound 0.2 µg/mL, partner 0.325 µg/mL	0.892
[3], first compound 0.2 µg/mL, partner 0.65 µg/mL	0.824
[3], first compound 0.4 µg/mL, partner 0.325 µg/mL	0.745
[3], first compound 0.4 µg/mL, partner 0.65 µg/mL	0.745
[3], first compound 0.8 µg/mL, partner 0.325 µg/mL	0.483
[3], first compound 0.8 µg/mL, partner 0.65 µg/mL	0.603

Details	fitness
[1], first compound 0.125 µg/mL, partner 1.25 µg/mL	0.563
[1], first compound 0.125 µg/mL, partner 2.5 µg/mL	0.544
[1], first compound 0.125 µg/mL, partner 5 µg/mL	0.466
[1], first compound 0.25 µg/mL, partner 2.5 µg/mL	0.093
[1], first compound 0.25 µg/mL, partner 5 µg/mL	0.131
[1], first compound 0.5 µg/mL, partner 1.25 µg/mL	0.027
[1], first compound 0.5 µg/mL, partner 2.5 µg/mL	0.0397
[1], first compound 0.5 µg/mL, partner 5 µg/mL	0.0383
[2], first compound 0.125 µg/mL, partner 1.25 µg/mL	0.768
[2], first compound 0.125 µg/mL, partner 2.5 µg/mL	0.829
[2], first compound 0.125 µg/mL, partner 5 µg/mL	0.546
[2], first compound 0.25 µg/mL, partner 1.25 µg/mL	0.559
[2], first compound 0.5 µg/mL, partner 1.25 µg/mL	0.208
[2], first compound 0.5 µg/mL, partner 2.5 µg/mL	0.143
[2], first compound 0.5 µg/mL, partner 5 µg/mL	0.0745
[3], first compound 0.105 µg/mL, partner 0.325 µg/mL	0.858
[3], first compound 0.105 µg/mL, partner 0.65 µg/mL	0.882
[3], first compound 0.105 µg/mL, partner 1.3 µg/mL	0.632
[3], first compound 0.21 µg/mL, partner 0.325 µg/mL	0.773
[3], first compound 0.21 µg/mL, partner 0.65 µg/mL	0.775
[3], first compound 0.21 µg/mL, partner 1.3 µg/mL	0.608
[3], first compound 0.42 µg/mL, partner 0.325 µg/mL	0.605
[3], first compound 0.42 µg/mL, partner 0.65 µg/mL	0.589
[3], first compound 0.42 µg/mL, partner 1.3 µg/mL	0.389

Details	Bliss interaction score
[4]	0.109
[5]	0.047
[6]	-0.0368
[7]	0.118
